Test results taken from patent US10577322B2, “5-methoxytryptophan and its derivatives and uses thereof” (National Health Research Institutes, priority 2015, dated 2020).

Legend:
COX-2 = test: PMA-induced COX-2 expression in A549 cells (immunoblot); type: cell-based; settings: for PMA-induced COX-2 protein expression: 30 min pretreatment, PMA 8 h
Description: Cellular protein were resolved by 5% to 20% SDS-PAGE and transferred to nitrocellulose membranes and blotted with specific antibodies as previously described (Lee, G. L., et al.).
After pretreating A549 cells with different concentrations of 5-MTP, 5-MTPE and NACT-5-MTP for 30 min, cells were stimulated with PMA for 8 h. Cell lysates were immunoblotted with antibodies for COX-2 or β-actin.

A549 lung cancer cells = test: Transwell cell migration assay, A549; type: cell-based; settings: 30 min pretreatment, PMA 4 h or 24 h
Description: (§1) Briefly, cells (10^4/well) were seeded on the upper chamber (6.5-mm insert, 8-μm polycarbonate membrane; Corning Inc.), which was placed in each well of a 24-well plate. The lower chamber was filled with 700 μL DMEM supplemented with 10% FBS. For assessment of in vitro invasion, cells were seeded onto the upper chamber insert coated with Matrigel (BD Biosciences) under the same conditions as the transwell migration assays. At the indicated time, nonmigrated cells that remained at the top surface of the insert were removed with a cotton swab. Cells that migrated to the lower membrane surface and cells that invaded through the matrigel gel to the underside of the membrane were fixed, stained with 0.1% crystal violet for 20 min, and counted under light microscopy. All of the assays were done in triplicate with excellent reproducibility.
(§2) Lung cancer A549 and breast cancers BT474 and T47D cells were pretreated with different concentrations of 5-MTP or 5-MTPE for 30 min, then stimulated with PMA for 4 h or 24 h. Cell migration was measured by the transwell migration assay.

[1] = test system: BT474 breast cancer cells; test: Transwell cell migration assay, BT474; type: cell-based; settings: 30 min pretreatment, PMA 4 h or 24 h
Description: as §1, §2

T47D breast cancer cells = test: Transwell cell migration assay, T47D; type: cell-based; settings: 30 min pretreatment, PMA 4 h or 24 h
Description: as §1, §2

COX-2 promoter = test: COX-2 promoter-luciferase assay in RAW264.7 cells; type: cell-based, mouse; settings: for LPS-induced COX-2 promoter activity (luciferase): LPS 8 h
Description: RAW264.7 macrophages were cotransfected with COX-2 promoter-luciferase, IL-6 promoter-luciferase constructs as previously described (Lee, G. L., et al.) or p5xNF-κB-luciferase (Stratagene) and pcDNA3.1-β-galactosidase plasmids using FuGENE 6 (Roche). After overnight transfection, the cells were incubated with or without LPS in the presence or absence of 5-MTP for 8 h. After treatment, cells were lysed, and luciferase activity was measured using an assay kit (Promega). β-galactosidase activity was used to normalize the data.
After pretreating mouse macrophage RAW264.7 cells with different concentrations of 5-MTP for 30 min, cells were stimulated with LPS for 8 h. Cell lysates were immunoblotted with antibodies for COX-2 or β-actin. In addition, RAW264.7 cells were transfected with COX-2 promoter-luciferase plasmid. After 24 h transfection, the cells were incubated with LPS for 8 h. Luciferase activity was measured. The experiments were repeated 3 times with similar results. The results shown in FIGS. 3A-3B confirmed that 5-MTP blocked LPS-induced COX-2 protein expression and promoter activity in a concentration-dependent manner in RAW264.7 cells.
(§3) Herein, after pretreating RAW264.7 cells with different concentrations of 5-MTP, 5-MTPE, COX-2 inhibitors (NSC398 or SC560) and NF-κB inhibitor JSH-23 for 30 min, cells were stimulated with LPS. In addition, RAW264.7 cells were also transfected with COX-2 promoter-luciferase plasmid. After 24 h transfection, the cells were incubated with LPS for 8 h. Luciferase activity as measured.

IL-6 = test: LPS-induced IL-6 level in RAW264.7 culture supernatants (ELISA); type: cell-based, mouse; settings: RAW264.7 cells; for LPS-induced IL-6 level in culture supernatants: 30 min pretreatment, LPS 24 h
Description: Mouse RAW264.7 macrophages were from the American Type Culture Collection and cultured in DMEM containing 10% FBS. […] The duration of LPS (100 ng/ml) treatment varied depending on the experiment.
Moreover, RAW264.7 cells and IL-6 promoter-luciferase plasmid transfected RAW264.7 cells were pretreated with different concentrations of 5-MTP for 30 min, followed by LPS stimulation for 8 h. IL-6 promoter activity was measured by luciferase assay. IL-6 level in culture supernatants was measured by ELISA.
Furthermore, RAW264.7 cells were treated with different concentrations of 5-MTP or 5-MTPE for 24 h. Cell viability was determined by MTT assay. In another experiment, after pretreating RAW264.7 cells with different concentrations of 5-MTP or 5-MTPE for 30 min, cells were stimulated with LPS for 24 h. IL-6 level in culture supernatants was measured by ELISA.
as §3

atherosclerotic lesions = test: Lipid accumulation and atherosclerotic lesions in ApoE-deficient mice on high fat diet; type: in vivo; settings: 23.5 mg/kg 3 times a week i.p., 8 weeks
Description: ApoE-deficient mice at 6 weeks were placed on a Western high fat diet containing 1.25% cholesterol and 21% fat (Research. Diets). The mice were simultaneously treated with vehicle (PBS), 5-MTP or 5-MTPE (23.4 mg/kg body weight, 3 times a week) by intraperitoneal injection. After 8 weeks, the aortic trees were dissected and lesions examined in the aortic arch and its branches. The aortas were carefully freed of connective and adipose tissue under a dissection microscope, opened longitudinally and stained with Oil red 0.
Since reduction of serum 5-MTP in CAD patients may be associated with the development of vascular disease, we determined whether exogenous 5-MTP derivatives exert protective effect in the development of atherosclerosis. ApoE-deficient mice were fed a Western high fat diet containing 1.25% cholesterol and 21% fat (Research Diets) starting at 6 weeks of age. The mice were simultaneously treated with vehicle (PBS), 5-MTP or 5-MTPE (23.5 mg/kg body weight, 3 times a week) by intraperitoneal injection. After 8 weeks, the aortic trees were dissected and lesions examined in the aortic arch and its branches.

[2] = test system: vascular smooth muscle cells; test: Calcifying medium-induced calcification in vascular smooth muscle cells; type: cell-based
Source text: Vascular smooth muscle cell (VSMC) calcification is the major phenomenon to induce atherosclerotic vascular calcification in cardiovascular disease (CVD). We next investigated the effect of 5-MTP derivatives on VSMC calcification.

| Structure (SMILES) | PMA-induced COX-2 protein expression (COX-2) | PMA-induced A549 cell migration (A549 lung cancer cells) | PMA-induced BT474 cell migration [1] | PMA-induced T47D cell migration (T47D breast cancer cells) | LPS-induced COX-2 promoter activity (luciferase) (COX-2 promoter) | LPS-induced IL-6 level in culture supernatants (IL-6) | LPS-induced IL-6 protein expression (IL-6; LPS 8 h) | lipid accumulation in the arteries (atherosclerotic lesions; ApoE-deficient mice) | calcifying medium-induced calcification [2] | COX-2 suppressive activity compared with 5-MTP (COX-2; PMA) | COX-2 suppressive activity compared with JSH-23 (COX-2 promoter; LPS) | LPS-induced IL-6 level in culture supernatants (IL-6; listed as 5MTPE) | suppressive capacity on IL-6 production in comparison with 5-MTP, COX-2 inhibitors (IL-6; 24 h after LPS) | IL-6 suppressive activity compared with JSH-23 (IL-6; LPS) | lipid accumulation in atherosclerotic lesions (Oil red O) (atherosclerotic lesions) |
| --- | --- | --- | --- | --- | --- | --- | --- | --- | --- | --- | --- | --- | --- | --- | --- |
| COc1ccc2[nH]cc(C[C@H](N)C(=O)O)c2c1 [5-MTP, 5-methoxytryptophan] | suppress | abrogated | abrogated | abrogated | dose-dependently blocked | dose-dependently blocked | inhibited | less lipid accumulation | reduced |  |  |  |  |  |  |
| COC(=O)C(N)Cc1c[nH]c2ccc(OC)cc12 (stereo not shown) [5-MTPE, ester-5-MTP] | dose-dependently blocked | abrogated | abrogated | abrogated | dose-dependently blocked | significantly inhibited |  |  | reduced | potent than that of 5-MTP | potent than that of NF-κB inhibitor JSH-23 | dose-dependently blocked | better suppressive capacity | potent than that of NF-κB inhibitor JSH-23 | suppressed lipid accumulation |
